Data as given in patent US20110064773A1, “PHARMACEUTICAL COMPOSITIONS COMPRISING A THYROID HORMON AND THEIR THERAPEUTIC USE” (UNIVERSITE JOSEPH FOURIER, priority 2007, published 2011).
Entries after “also recorded” stand apart in the source; their conditions may differ.

Columns and labels:
Assay type in all cases: in vivo, rat
n0STZ rats = experiment: Oral glucose tolerance test (OGTT) and pancreas mass in n0STZ rats; conditions: 2.5 μg/100 g BW
Method: N0STZ rats are diabetic non obese with moderate insulin-resistance, and have received an injection of streptozotocine just after the birth, said product killing pancreatic cells.
(§1) The glucose resistance of these animals was tested by an oral glucose tolerance test (OGTT) Animals were fed with 2 g/kg BW of glucose and the Glucose concentration and Insulin concentration in blood were measured.
The glucose concentration (FIG. 35) and insulin concentration (FIG. 36) were then measured for this time.

GK rats = experiment: Oral glucose tolerance test (OGTT) and pancreas mass in GK rats; conditions: 2.5 μg/100 g BW
Method: GK rats are diabetic non obese with moderate insulin-resistance, and have lower pancreatic cells than control rats. The pancreatic cells are also less efficient in the insulin secretion.
as §1
The glucose concentration (FIG. 40) and insulin concentration (FIG. 41) were then measured for this time.

ZDF rats [1] = experiment: Body composition of ZDF rats
Source text: At the end of the experimental period, animals were sacrificed by decapitation, in order to avoid the well-known effects of general anesthetics on mitochondrial metabolism. Blood samples were immediately collected and plasma was frozen for subsequent determination of serum metabolites and hormones. Liver, muscles and fat depots were quickly excised and weighed. Liver median lobe was rapidly freeze-clamped. Muscles (plantaris, soleus and gastrocnemius) were frozen in isopentane precooled in liquid nitrogen. Mesenteric fat consisted of adipose tissue surrounding the gastro-intestinal tract from the gastro-oesophageal sphincter to the end of the rectum with special care taken in distinguishing and removing the pancreas. Retroperitoneal fat pad was taken as the distinct depot behind each kidney along the lumbar muscles. Epididymal fat consisted of adipose tissue on top of the epididymis. For subcutaneous depot measurement, a rectangular piece of skin was taken on the right side of each animal from the median line of the abdomen between the spine and the right hip to the first rib. Interscapular brown adipose tissue was removed and dissected free from adjacent muscles and white adipose tissue. The heart ventricles, the right kidney and the spleen were also excised, weighed and frozen.

ZDF rats [2] = experiment: Glycaemia, insulinaemia and pancreas mass in ZDF diabetic rats
Method: Rats were genetically obese normoglycemic (Zucker or Fa/Fa), 10-11 week-old diabetic rats (ZDF), genetic non-overweight diabetic (type 2 diabetes) rats (Goto-Kakizaki (GK) model), non-overweight diabetic (type 2 diabetes) rats n0STZ model or normal Wistar rats submitted to an 8-week high-fat high sucrose diet (a model of nutritional induction of insulin resistance).
The day of the study, after a fasted period overnight (18 h), blood samplings will be taken in awaked rats from the tail vein.
Insulin levels were determined with commercial kits (Linco Research).
Glucose and 3-hydroxybutyrate (3-HB) were measured enzymatically and non esterified fatty acid (NEFA) by colorimetric assay (Wako Chemicals).
ZDF diabetic rats are a good model for studying the anti-diabetic treatments, since these animals develop a major hyperglycaemia during their life due to the combination of moderate obesity and pancreas degeneracy. To date, treatments are ineffective when the hyperglycaemia is established.
Then ZDF rats were treated with low doses of rT3 for 21 days (2.5 μg/100 g BW/day) and the glycaemia, insulinaemia were measured after 8, 16 and 21 days.

ZDF rats [3] = experiment: Indirect calorimetry (EE, RQ) of ZDF rats
Source text: Energy expenditure as well as the nature of substrate oxidized (carbohydrates or lipids) were investigated by indirect calorimetry. This principle is based on the determinations of CO2 release (VCO2) and O2 consumption (VO2) by each animal. It assumes that O2 is entirely involved in substrate oxidation in the respiratory chain (leading to water production) while CO2 release is related to substrate decarboxylation (in the Krebs' cycle). These measurements allow assessing energy expenditure (EE) and respiratory quotient ([…], RQ). EE represent the absolute energy dissipation during rest and activity. RQ is a relative measurement indicating the ratio of carbohydrate versus lipid involved in oxidative pathway. A ratio of 1.0 indicates exclusive carbohydrate oxidation while a ratio of 0.7 indicates exclusive lipid oxidation. Each value between these two extreme values indicates the relative proportion of each substrate (of note protein oxidation was not evaluated). As an example, RQ approaches 0.7 during fasting, indicating lipid oxidation, conversely after feeding RQ increases close to 1 indicating carbohydrate oxidation resulting from food intake and blood insulin rise. Likewise, animals fed high-carbohydrate diets have higher RQs than those fed high-fat diets.
The indirect calorimetry system (Panlab, Barcelona, Spain) consists of cages, pumps, flow controllers, valves, and analyzers. It is computer-controlled in order to sequentially measure O2 and CO2 concentrations as well as air flow in four separate cages allowing four simultaneous determinations. Rats are isolated in one of the four metabolic chambers, and room air is used as a reference to monitor ambient O2 and CO2 concentrations periodically.
At predefined intervals, the computer sends a signal to store differential CO2 and O2 concentrations, flow rate, allowing computing VCO2, VO2, RQ, and EE (Weir equation) with data acquisition hardware (Metabolism, Panlab, Barcelona, Spain).

Wistar rats [4] = experiment: Oral glucose tolerance test (OGTT) and pancreas mass in non-diabetic Wistar rats; conditions: 2.5 μg/100 g BW, vs placebo
Method: Wistar rats are non-diabetic, non-obese without insulin-resistance, however like in humans, they tend to get slightly obese and insulin resistant with age. However this is supposed to be “physiological”.
The glucose resistance of these animals was tested by an oral glucose tolerance test (OGTT). Animals were fed with 2 g/kg BW of glucose and the Glucose concentration and Insulin concentration in blood were measured.

Wistar rats [5] = experiment: Growth rate (body weight) and food intake of Wistar rats; conditions: ultra low dose 0.25 μg/100 g BW, vs placebo
[6] = Blood rT3 dosage over 24 hours after administration; conditions: Wistar rats
Method: Blood rT3 dosage. The rT3 concentration is measured for 24 hours in Wistar rats treated with a high dosage of rT3 by intra-peritoneal injection (IP, square), oral ingestion (per os, triangle) or subcutaneous injection (sc, star). Basal rT3 level is measured in animal treated with placebo (lozenge).
Wistar rats were treated with rT3 hormone by a daily intraperitoneal injection (IP) (25 μg/100 g BW), a daily sub-cutaneous injection (SC) (25 μg/100 g BW), or a per os administration included in the rat food (25 μg/100 g BW). The continuous and constant administration was performed by using a pellet (25 μg/100 g BW).

[7] = 2 g/kg glucose, 3 hours, vs placebo
[8] = 5 first minutes following the OGTT

SMILES: N[C@@H](Cc1ccc(Oc2cc(I)c(O)c(I)c2)c(I)c1)C(=O)O [rT3, 3′,5′,3-triiodothyronine]
- AUC of the glucose concentration after OGTT (n0STZ rats; [7]): significantly reduced
- AUC of the insulin concentration after OGTT (n0STZ rats; [7]): largely enhanced
- Kinetic of blood glucose concentration after OGTT (n0STZ rats; [8]): regulate more rapidly
- Kinetic of insulin concentration after OGTT (n0STZ rats; 20 min kinetic): high increase
- Pancreas mass (n0STZ rats; vs placebo): increase
- AUC of the glucose concentration after OGTT (GK rats; [7]): significantly reduced
- AUC of the insulin concentration after OGTT (GK rats; [7]): largely enhanced
- Kinetic of blood glucose concentration after OGTT (GK rats; [8]): regulate more rapidly
- Kinetic of insulin concentration after OGTT (GK rats; 20 min kinetic): increase
- Pancreas mass (GK rats; vs placebo): increase
- Brown adipose tissue mass (ZDF rats [1]; 2.5 μg/100 g BW): increase
- Muscular mass (ZDF rats [1]; 2.5 μg/100 g BW): not affected
- White adipose tissue (ZDF rats [1]; 2.5 μg/100 g BW): seems not to be affected
- Fat mass (photography, FIG. 21) (ZDF rats [1]; low dose of rT3, 21 days, vs placebo): reduced
- Insulin level (blood insulin concentration) (ZDF rats [2]; 2.5 μg/100 g BW/day, up to 21 days, placebo progressively decreases): maintained; also recorded: increasing plasmatic insulin concentration
- Pancreas mass (ZDF rats [2]; 2.5 μg/100 g BW/day, vs placebo): increased
- Glycaemia (blood glucose concentration) (ZDF rats [2]; low dose 2.5 μg/100 g BW/day, 8, 16 and 21 days, vs placebo): large reduction; also recorded: decreasing glucose concentration
- Energy expenditure (ZDF rats [3]; 2.5 μg/100 g BW, vs placebo): enhanced
- Respiratory quotient (RQ) (ZDF rats [3]; 2.5 μg/100 g BW, vs placebo): enhanced
- Energy expenditure, enhancement (ZDF rats [3]; low dose of rT3): +50%
- AUC of the glucose concentration after OGTT (Wistar rats [4]; 2 g/kg glucose, 3 hours): slightly reduced, however not significantly
- AUC of the insulin concentration after OGTT (Wistar rats [4]; 2 g/kg glucose, 3 hours): significantly lower
- Pancreas mass (Wistar rats [4]): moderate, albeit significant, increase
- Body weight (Wistar rats [5]): also reduce the body weight
- Circulating rT3 (degradation) ([6]; high dosage, intra-peritoneal injection): rapidly degraded
- Circulating rT3 compared to the injected dose ([6]; intra-peritoneal injection, after 5 hours): five fold decreased
- Circulating rT3 concentration in blood ([6]; per os administration): never allows to obtain in blood a concentration of rT3 similar with the concentration observed after intra-peritoneal injection
- Circulating rT3 concentration in blood ([6]; sub-cutaneous injection): remains substantially the same as the injected concentration
- Circulating rT3 (degradation) ([6]; sub-cutaneous injection, after 24 hours): quasi completely degraded
